In patent publication US20210038559A1, “CANNABINOIDS AND DERIVATIVES FOR PROMOTING IMMUNOGENICITY OF TUMOR AND INFECTED CELLS” (priority 2018, published 2021):

Legend:
A9 tumors = experiment: A9 tumor mouse model, intraperitoneal treatment; type: in vivo
Excerpt: FIG. 7A-7B. Number of live lymphocytes observed within the tumor of tumor bearing mice (n=8 for PBS negative control and Cannabigerol treatments, n=6 for TSA positive control). A9 tumors were present in mice for 7 days before intraperitoneal treatment, and mice were sacrificed 4-5 days after treatment. Cannabigerol upregulation of MHC-I expression attracts increased number of lymphocytes which can infiltrate the tumor.
To confirm the in vivo activity of cannabinoid compounds, a representative cannabinoid was tested in a representative animal model. A9 tumor cells were injected subcutaneously into mice at 8-10 weeks of age, and mice were treated 7 days later with either Cannabigerol, TSA, or Vehicle. 1×10^5 A9 cells were injected in a volume of 50 μL of PBS into the right flank of each mouse subcutaneously. Starting at day 7 after injection of the A9 tumor cells, intraperitoneal injections of Cannabigerol (Cayman Chemical Company) at 10 mg/kg, Trichostatin A (TSAX Sigma-Aldrich) at 0.5 mg/kg dissolved in 1% DMSO and PBS, or vehicle (0.2% DMSO, 5% Bovine Serum Albumin (BSA), in PBS) were administered daily to the animals. Cannabigerol was dissolved in 0.2% DMSO, 5% Bovine Serum Albumin, in PBS. Animals were weighed 3 times a week and during tumor measurements, and tumor measurements were begun upon appearance of the tumor, on […] of the trial. Tumor volume was determined using calipers to measure tumor dimensions. Mice were sacrificed at day 10, 11, and 12, as was dictated by subscribed humane endpoints, in which mice experienced tumor ulceration. Half of the tumors were removed from the mouse and immediately placed in digestion media (RPMI Medium 1640 (Gibco) with 10% FBS and Penicillin+Streptomycin (P+S), with the addition of 10% collagenase hyaluronidase, 15% DNAse I (Stemcell)). Tumors were chopped in 1 mL of digestion media and placed at a temperature of 35° C. for 30 minutes, before being passed through a 100 micron cell strainer (Falcon). […]

[1] = system: MHC-I expression on COLO 205 cells; experiment: Phytocannabinoid MHC-I induction on COLO 205 cells, 0-100 μM, 48 hours
Method: FIG. 4. Cell surface MHC class I expression was measured by flow cytometry (MFI).
Phytocannabinoids were tested for MHC-I-inducing activity on COLO 205 cells. Each cannabinoid was tested at a concentration range of 0-100 μM. […] “ND” indicates not determined.

[2] = system: MHC class I expression, mouse Lewis lung carcinoma cell line A9; experiment: MHC class I expression in mouse A9 Lewis lung carcinoma cells, 24 hours, flow cytometry; type: cell-based; conditions: 21 μM, relative to the DMSO control
Method: FIG. 1A-1B. Cannabigerol stimulates MHC class I expression in the mouse A9 Lewis lung carcinoma (FIG. 1A) and the human COLO 205 colorectal carcinoma (FIG. 1B) cell lines. Cells were treated for 24 hours with 21.2 μM (A) or 25 and 50 μM (FIG. 1B) cannabigerol.
Cannabigerol, a representative cannabinoid, was tested for its ability to also stimulate MHC class I expression in mammalian cancer cell lines. The mouse Lewis lung carcinoma cell line, A9, was treated with 21 μM of cannabigerol for 24 hours prior to flow cytometric analysis of cell surface expression of MHC class I expression levels using the MHC class I antibody W6/32 (Thermo Fisher). Control conditions included the vehicle, dimethyl sulfoxide (DMSO, 1%) alone, and 100 ng/ml of trichostatin A (TSA), a histone deacetylase inhibitor and known inducer of MHC class I expression in mammalian cells. […] The positive control, TSA, stimulated expression by 2.4-fold.

MHC class I, A9 cells = type: cell-based, mouse; conditions: 48 hours
Method: FIG. 6. Cannabigerol treatment of A9 cells for 48 hours at various doses increases MHC class I protein expression, as determined by flow cytometry. […] IFN γ treatment was at 5.832×10^−6 in two mL of media.
The effect of cannabigerol on MHC class I in A9 cancer cells were determined as follows. A9 cells (1×10^6) were plated onto a 6 well plate (Corning) in two mL of media. A9 cells were treated after 24 hours at various concentrations of Cannabigerol, 5.832×10^4 nM IFN gamma or DMSO vehicle for 48 hours. Cells were then harvested from the plate as per protocol and half of the cells were checked for MHC class I expression levels using flow cytometry. The Anti-mouse H2 KB APC antibody (Biolegend) was used at 1:200 in FACS buffer (2% FBS in PBS).

[3] = 10 mg/kg intraperitoneal daily from day 7, versus Vehicle treated group

SMILES: CCCCCc1cc(O)c(C/C=C(\C)CCC=C(C)C)c(O)c1 [Example 1, 2-[(2E)-3,7-dimethyl-2,6-octadien-1-yl]-5-pentyl-1,3-benzenediol]
- absolute numbers of lymphocytes in tumors (A9 tumors; 10 mg/kg intraperitoneal daily from day 7, relative to vehicle treated tumors): Much higher
- Mouse weight (A9 tumors; [3]): similar
- tumor volume (A9 tumors; [3]): similar
- EC50 ([1]; Homo sapiens, COLO 205, 48 h): 40 µM
- Fold Induction ([1]; MHC-I expression on COLO 205 cells, 0-100 μM, 48 hours, relative to control cells treated only with buffer): 2.7 Fold
- cell death [2]: limited cell death
- increase in MHC class I expression [2]: 1.8 fold
- upregulation of class I MHC (MHC class I, A9 cells; 0.0275 μM): less upregulation
- class I MHC expression (MHC class I, A9 cells; 0.055 μM, relative to vehicle (DMSO), p value <0.0001, one-way ANOVA): significant increase
